The results in this text go back to patent publication US7049332B2, “HIV inhibiting N-aminoimidazole derivatives” (K. U. Leuven Research & Development, priority 2001, dated 2006).

Broadly, the CC50 is the concentration that lowers cell viability or growth by half. A low value points to harm at low concentration. For orientation: IC50 means the concentration needed to halve the response being measured. Read a high IC50 as weaker potency. Usually melting point stands for the temperature of the solid-liquid transition.

Converted amounts (≈) assume the structure as drawn.

The subject of one series is MT-4 cells. Put plainly: Cytotoxicity in mock-infected MT-4 cells (MTT). It is filed as cell-based. The procedure:
(§1) A rapid and automated assay procedure was used for the in vitro evaluation of anti-HIV agents. An HTLV-1 transformed T4-cell line MT-4, which was previously shown to be highly susceptible to and permissive for HIV infection, served as the target cell line. Inhibition of the HIV-induced cytopathogenic effect was used as the end point. The viabitlity of both HIV-and mock-infected cells was assessed spectrophotometrically via in situ reduction of 3-(4,5-dimethylthiazol-2-yl)-2,5-diphenyltetrazolium bromide (MTT). The 50% cytotoxic concentration (CC50 in μg/ml) was defined as the concentration of compound that reduced the absorbance of the mock-infected control sample by 50%. The percent protection achieved by the compound in HIV-infected cells was calculated by the following formula: Examples of inhibition of cell proliferation by particular compounds of formula (I) can be found by looking at the respective CC50 values in the MT-4 cell line. Cells: MT-4 cells (Miyoshi et al., 1982) were grown and maintained in RPMI 1640 medium supplemented with 10% heat-inactivated fetal calf serum, 2 mM […], 0.1% sodium bicarbonate, and 20 œg of gentamicin per ml.

Another series relates to HIV-2 (ROD). Put plainly: Inhibition of HIV-induced cytopathogenic effect in MT-4 cells (MTT), HIV-2. It is filed as cell-based. To be noted: for HIV-2 (ROD) IC50 / IC50: 50% protection against HIV-induced cytopathogenic effect, MT-4 cells, MTT; for HIV-2 (ROD) SI: selectivity index = ratio of CC50 to IC50, HIV-2; for IC50: Human immunodeficiency virus 2, MT4. The method, then:
(§2) A rapid and automated assay procedure was used for the in vitro evaluation of anti-HIV agents. An HTLV-1 transformed T4-cell line MT-4, which was previously shown to be highly susceptible to and permissive for HIV infection, served as the target cell line. Inhibition of the HIV-induced cytopathogenic effect was used as the end point. The viabitlity of both HIV-and mock-infected cells was assessed spectrophotometrically via in situ reduction of 3-(4,5-dimethylthiazol-2-yl)-2,5-diphenyltetrazolium bromide (MTT). The 50% cytotoxic concentration (CC50 in μg/ml) was defined as the concentration of compound that reduced the absorbance of the mock-infected control sample by 50%. The percent protection achieved by the compound in HIV-infected cells was calculated by the following formula:
(§3) [formula] whereby (ODT)HIV is the optical density measured with a given concentration of the test compound in HIV-infected cells; (ODC)HIV is the optical density measured for the control untreated HIV-infected cells; (ODC)MOCK is the optical density measured for the control untreated mock-infected cells; all optical density values were determined at 540 nm. The dose achieving 50% protection according to the above formula was defmed as the 50% inhibitory concentration (IC50 in μg/ml). The ratio of CC50 to IC50 was defined as the selectivity index (SI).
(§4) Cells: MT-4 cells (Miyoshi et al., 1982) were grown and maintained in RPMI 1640 medium supplemented with 10% heat-inactivated fetal calf serum, 2 mM 1-glutamine, 0.1% sodium bicarbonate, and 20 œg of gentamicin per ml.
(§5) Viruses: The HIV-1(NL4.3) strain (Adachi et al., 1986) is a molecular clone obtained from the National Institutes of Health (Bethesda, Md.). The HIV-2(ROD) (Barr,-Sinoussi et al., 1983) stock was obtained from culture supernatant of HIV-2 infected cell lines.
For orientation: Damage to the host cells serves as the signal in cytopathic effect assays.

The test system of another series is HIV-1 (NL4.3 WT). Description: Inhibition of HIV-induced cytopathogenic effect in MT-4 cells (MTT), HIV-1. It is filed as cell-based. To be noted: for HIV-1 (NL4.3 WT) IC50 / IC50: 50% protection against HIV-induced cytopathogenic effect, MT-4 cells, MTT; for HIV-1 (NL4.3 WT) SI: selectivity index = ratio of CC50 to IC50, HIV-1; for IC50: Human immunodeficiency virus 1, MT4. The method, then:
as §2, §3, §4, §5

Series [1] can be described thus: Cytotoxicity in mock-infected MT-4 cells (MTT). Particulars: human; mock-infected MT-4 cells, absorbance reduced by 50%, MTT. It is filed as cell-based. The procedure: as §1

Regarding `COc1cccc(Nn2c(-c3ccccc3)c(C)[nH]c2=S)c1` [Compound 9.31], in the series with MT-4 cells, the “cytotoxicity CC50” value was determined as 12.3 µg/mL. Also, in the series with HIV-2 (ROD), the “HIV-2 (ROD) IC50” value is above 12.3 µg/mL and the “HIV-2 (ROD) SI” value is reported as below 1. In the series with HIV-1 (NL4.3 WT), the “HIV-1 (NL4.3 WT) IC50” value is 3.1 µg/mL and the “HIV-1 (NL4.3 WT) SI” value came to 4.0.

As to `Cc1ncn(Nc2cccc(Cl)c2)c1-c1cccc(C#N)c1` [Compound 13.15, 1-(3-Chlorphenylamino)-5-(3-cyanophenyl)-4-methyl-1H-imidazole], the “cytotoxicity CC50” value in the series with MT-4 cells was 10.9 µg/mL. Besides, in the series with HIV-2 (ROD), the “HIV-2 (ROD) IC50” value was above 10.9 µg/mL and the “HIV-2 (ROD) SI” value is recorded as below 1. Moreover, in the series on HIV-1 (NL4.3 WT), the “HIV-1 (NL4.3 WT) IC50” value is 3.4 µg/mL and the “HIV-1 (NL4.3 WT) SI” value was determined as 3.2.

Take `Cc1[nH]c(=S)n(Nc2cccc(Cl)c2)c1-c1cccc(C#N)c1` [Compound 9.32, 1-(3-Chlorphenylamino)-5-(3-cyanophenyl)-2,3-dihydro-4-methyl-1H-imidazole-2-thione]: in the series on MT-4 cells, the “cytotoxicity CC50” value was found to be 32.1 µg/mL. In the series on HIV-2 (ROD), the “HIV-2 (ROD) IC50” value was above 32.1 µg/mL and the “HIV-2 (ROD) SI” value is below 1. For the same compound, in the series with HIV-1 (NL4.3 WT), the “HIV-1 (NL4.3 WT) IC50” value was 13.8 µg/mL and the “HIV-1 (NL4.3 WT) SI” value was 2.3.

In turn, `Cc1[nH]c(=S)n(Nc2ccccc2)c1-c1ccccc1` [Compound 9.12, 2,3-Dihydro-4-methyl-5-phenyl-1-(phenylamino)-1H-imidazole-2-thione] registered a melting point of 224 to 226 °C. In series [1], the CC50 is 14.7 µg/mL (≈ 52.2 µM). In the series on HIV-2 (ROD), the IC50 was above 14.7 µg/mL and the “HIV-2 (ROD) SI” value is reported as below 1. In the series with HIV-1 (NL4.3 WT), the IC50 came to 5.2 µg/mL (≈ 18.5 µM) and the “HIV-1 (NL4.3 WT) SI” value was 2.8.

The compound `Cc1[nH]c(=S)n(Nc2cccc(Br)c2)c1-c1ccccc1` [Compound 9.14, 1-(3-Bromophenylamino)-2,3-dihydro-4-methyl-5-phenyl-1H-imidazole-2-thione] displayed a melting point of 190 °C. This compound also displayed a CC50 in series [1] of 17.1 µg/mL (≈ 47.5 µM). In addition, in the series on HIV-2 (ROD), the IC50 is above 17.1 µg/mL and the “HIV-2 (ROD) SI” value was below 1. In the series with HIV-1 (NL4.3 WT), the IC50 came to 1.6 µg/mL (≈ 4.44 µM) and the “HIV-1 (NL4.3 WT) SI” value was 10.5.
